Data: patent US6825172B2, “3-descladinosyl-6-O-carbamoyl and 6-O-carbonoyl macrolide antibacterial agents” (Janssen Pharmaceutica, NV, priority 2002, dated 2004)
Converted amounts (≈) assume the structure as drawn. Where two headings read alike, the source gives them in different places.

Columns and labels:
Assay in all cases: MIC, microdilution broth method (NCCLS)
Format in all cases: cell-based
[1] = test system: S. pneumoniae ATCC49619; conditions: Streptococcus pneumoniae, read-out: MIC Values, D: S. pneumoniae ATCC49619
Method: (§1) Minimal inhibitory concentration (MIC) has been an indicator of in vitro antibacterial activity widely used in the art. The in vitro antimicrobial activity of the compounds was determined by the microdilution broth method following the test method from the National Committee for Clinical Laboratory Standards (NCCLS). This method is described in the NCCLS Document M7-A4, Vol.17, No.2, “Methods for Dilution Antimicrobial Susceptibility Test for Bacteria that Grow Aerobically—Fourth Edition”, which is incorporated herein by reference.
(§2) In this method two-fold serial dilutions of drug in cation adjusted Mueller-Hinton broth are added to wells in microdilution trays. The test organisms are prepared by adjusting the turbidity of actively growing broth cultures so that the final concentration of test organism after it is added to the wells is approximately 5×10^4 CFU/well.
(§3) Following inoculation of the microdilution trays, the trays are incubated at 35 °C for 16-20 hours and then read. […] The amount of growth in the wells containing the test compound is compared with the amount of growth in the growth-control wells (no test compound) used in each tray. As set forth in Table 1, compounds of the present invention were tested against a variety of Gram positive and Gram negative pathogenic bacteria resulting in a range of activities depending on the organism tested.

[2] = test system: E. faecalis ATCC29212; conditions: Enterococcus faecalis, read-out: MIC Values, C: E. faecalis ATCC29212
Method: as §1, §2, §3

[3] = test system: S. aureus ATCC29213; conditions: Staphylococcus aureus, read-out: MIC Values, B: S. aureus ATCC29213
Method: as §1, §2, §3

[4] = Table 3, 6-Carbonate Macrolide Derivatives
[5] = Table 2, 3,6-Dicarbamoyl Macrolide Derivatives
[6] = Table 1, 6-Carbamoyl-3-Acyl Macrolide Derivatives

| Structure (SMILES) | MIC [1, 4] [µg/mL] | MIC [2, 4] [µg/mL] | MIC [3, 4] [µg/mL] | MIC [1, 6] [µg/mL] | MIC [2, 6] [µg/mL] | MIC [3, 6] [µg/mL] | further results |
| --- | --- | --- | --- | --- | --- | --- | --- |
| CC[C@H]1OC(=O)[C@H](C)[C@@H](OC(=O)C(C)C)[C@H](C)[C@@H](O[C@@H]2O[C@H](C)C[C@H](N(C)C)[C@H]2O)[C@](C)(OC(=O)OC/C=C/c2cnc3ccccc3c2)C[C@@H](C)C(=O)[C@H](C)[C@H]2NC(=O)O[C@@]21C [Compound 86] | 0.06 (≈ 0.068 µM) | 0.5 (≈ 0.567 µM) | 1 (≈ 1.13 µM) | – | – | – | – |
| CC[C@H]1OC(=O)[C@H](C)[C@@H](OC(=O)N(CC)CC)[C@H](C)[C@@H](O[C@@H]2O[C@H](C)C[C@H](N(C)C)[C@H]2O)[C@](C)(OC(=O)NC/C=C/c2ccc(-c3cccnn3)cc2)C[C@@H](C)C(=O)[C@H](C)[C@H]2NC(=O)O[C@@]21C [Compound 71] | – | – | – | – | – | – | MIC [1, 5]: 0.06 µg/mL (≈ 0.064 µM); MIC [2, 5]: 1 µg/mL (≈ 1.07 µM); MIC [3, 5]: 1 µg/mL (≈ 1.07 µM) |
| CC[C@H]1OC(=O)[C@H](C)[C@@H](OC(=O)C(C)C)[C@H](C)[C@@H](O[C@@H]2O[C@H](C)C[C@H](N(C)C)[C@H]2O)[C@](C)(OC(=O)NC/C=C/c2ccc(-c3cnccn3)cc2)C[C@@H](C)C(=O)[C@H](C)[C@H]2NC(=O)O[C@@]21C [Compound 45] | – | – | – | 0.06 (≈ 0.0661 µM) | 0.5 (≈ 0.551 µM) | 0.5 (≈ 0.551 µM) | – |
| CC[C@H]1OC(=O)[C@H](C)[C@@H](OC(=O)C(C)C)[C@H](C)[C@@H](O[C@@H]2O[C@H](C)C[C@H](N(C)C)[C@H]2OC(C)=O)[C@](C)(OC(=O)NC/C=C/c2ccc(-n3cccn3)cc2)C[C@@H](C)C(=O)[C@H](C)[C@H]2NC(=O)O[C@@]21C [Compound 48] | – | – | – | 0.06 (≈ 0.064 µM) | 0.5 (≈ 0.533 µM) | 1 (≈ 1.07 µM) | – |
| CC[C@H]1OC(=O)[C@H](C)[C@@H](OC(=O)N(CC)CC)[C@H](C)[C@@H](O[C@@H]2O[C@H](C)C[C@H](N(C)C)[C@H]2O)[C@](C)(OC(=O)OC/C=C/c2ccc(-c3cnccn3)cc2)C[C@@H](C)C(=O)[C@H](C)[C@H]2NC(=O)O[C@@]21C [Compound 85] | 0.03 (≈ 0.032 µM) | 0.5 (≈ 0.533 µM) | 0.5 (≈ 0.533 µM) | – | – | – | – |
| CC[C@H]1OC(=O)[C@H](C)[C@@H](OC(=O)Cc2cccnc2)[C@H](C)[C@@H](O[C@@H]2O[C@H](C)C[C@H](N(C)C)[C@H]2O)[C@](C)(OC(=O)OC/C=C/c2ccc(-c3cnccn3)cc2)C[C@@H](C)C(=O)[C@H](C)[C@H]2NC(=O)O[C@@]21C [Compound 77] | 0.06 (≈ 0.0626 µM) | 0.5 (≈ 0.522 µM) | 1 (≈ 1.04 µM) | – | – | – | – |
| CC[C@H]1OC(=O)[C@H](C)[C@@H](OC(=O)N(CC)CC)[C@H](C)[C@@H](O[C@@H]2O[C@H](C)C[C@H](N(C)C)[C@H]2O)[C@](C)(OC(=O)NC/C=C/c2ccc(-n3cccn3)cc2)C[C@@H](C)C(=O)[C@H](C)[C@H]2NC(=O)O[C@@]21C [Compound 70] | – | – | – | – | – | – | MIC [1, 5]: 0.06 µg/mL (≈ 0.0649 µM); MIC [2, 5]: 0.5 µg/mL (≈ 0.54 µM); MIC [3, 5]: 1 µg/mL (≈ 1.08 µM) |
| CC[C@H]1OC(=O)[C@H](C)[C@@H](OC(=O)C(C)C)[C@H](C)[C@@H](O[C@@H]2O[C@H](C)C[C@H](N(C)C)[C@H]2O)[C@](C)(OC(=O)NC/C=C/c2ccc(-c3cccnn3)cc2)C[C@@H](C)C(=O)[C@H](C)[C@H]2NC(=O)O[C@@]21C [Compound 46] | – | – | – | 0.06 (≈ 0.0661 µM) | 0.12 (≈ 0.132 µM) | 0.5 (≈ 0.551 µM) | – |
| CC[C@H]1OC(=O)[C@H](C)[C@@H](OC(=O)C(C)C)[C@H](C)[C@@H](O[C@@H]2O[C@H](C)C[C@H](N(C)C)[C@H]2O)[C@](C)(OC(=O)NC/C=C/C=C/c2cnc(C(C)C)nc2)C[C@@H](C)C(=O)[C@H](C)[C@H]2NC(=O)O[C@@]21C [Compound 44] | – | – | – | 0.25 (≈ 0.278 µM) | 2 (≈ 2.22 µM) | 2 (≈ 2.22 µM) | – |
| CC[C@H]1OC(=O)[C@H](C)[C@@H](OC(=O)Cc2cccnc2)[C@H](C)[C@@H](O[C@@H]2O[C@H](C)C[C@H](N(C)C)[C@H]2O)[C@](C)(OC(=O)NC/C=C/c2cnc(C(C)(C)C)nc2)C[C@@H](C)C(=O)[C@H](C)[C@H]2NC(=O)O[C@@]21C [Compound 42] | – | – | – | 0.06 (≈ 0.064 µM) | 0.5 (≈ 0.534 µM) | 1 (≈ 1.07 µM) | – |
